Common to all, as to experiment: KINOMEscan (ScanMAX) kinase profiling
Type in all cases: binding

The target in assay [1] is T1, panel of 468 kinases (Homo sapiens, UniProt P00519, T315I).
T1 construct: purchased KINOMEscan (ScanMAX) service
As to conditions: 1 μM, read-out: % control. The method, then:
(§1) The kinase selectivity of inventive compounds 12, 75, and 77 was evaluated by KINOMEscan®. KINOMEscan® (ScanMAX™) analysis was performed against a near comprehensive panel of 468 kinases. The control percentage (% control) for inventive compounds at 1 μM in DMSO was determined by Equation 1: % control=(inventive compound−positive control)/(negative control−positive control)×100%, Equation 1
(§2) wherein the positive control is a compound with a % control value of 0% relative light units (RLU), and the negative control (i.e., DMSO) has % control value of 100% RLU. The enzyme selectivity in the present invention is defined as follows: inventive compounds are considered active for an enzyme when the observed % control is less than 35% (<35%).

For assay [2], the target named is T2, panel of 468 kinases (Homo sapiens, UniProt P00533, DEL746-750).
T2 construct: purchased KINOMEscan (ScanMAX) service
As to conditions: EGFR(E746-A750del); 1 μM; read-out: % control. Here is the method:
as §1, §2

For assay [3], the target named is T3, panel of 468 kinases (Homo sapiens, UniProt P07949, V804L).
T3 construct: purchased KINOMEscan (ScanMAX) service
As to conditions: RET(V804L); 1 μM; read-out: % control. Here is the method: as §1, §2

Assay [4] concerns the target T4, panel of 468 kinases (Homo sapiens, UniProt P15056).
T4 construct: purchased KINOMEscan (ScanMAX) service
As to conditions: BRAF; 1 μM; read-out: % control. The method, then: as §1, §2

In assay [5] the target is T5, panel of 468 kinases (Homo sapiens, UniProt P36897).
T5 construct: purchased KINOMEscan (ScanMAX) service
T5 sequence (P36897 34-503): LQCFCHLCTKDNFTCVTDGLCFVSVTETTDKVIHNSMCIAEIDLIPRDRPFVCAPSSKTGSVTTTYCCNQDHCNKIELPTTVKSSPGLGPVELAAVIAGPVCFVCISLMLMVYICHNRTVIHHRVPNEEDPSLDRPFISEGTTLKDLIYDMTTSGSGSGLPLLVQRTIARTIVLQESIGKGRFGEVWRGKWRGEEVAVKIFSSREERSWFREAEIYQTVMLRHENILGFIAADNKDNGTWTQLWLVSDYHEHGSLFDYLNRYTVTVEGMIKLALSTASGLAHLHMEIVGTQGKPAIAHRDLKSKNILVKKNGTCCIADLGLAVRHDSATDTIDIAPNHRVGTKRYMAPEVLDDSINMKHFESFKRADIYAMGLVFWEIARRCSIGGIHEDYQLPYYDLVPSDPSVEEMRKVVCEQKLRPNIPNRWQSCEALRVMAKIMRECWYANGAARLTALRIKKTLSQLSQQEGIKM
As to conditions: TGFBR1; 1 μM; read-out: % control. Here is the method: as §1, §2

The target in assay [6] is T6, panel of 468 kinases (Homo sapiens, UniProt P42336, M1043I).
T6 construct: purchased KINOMEscan (ScanMAX) service
The note with it: PIK3CA(M1043I); 1 μM; read-out: % control. Here is the method:
as §1, §2

For assay [7], the target named is T7, panel of 468 kinases (Homo sapiens, UniProt P45983).
T7 construct: purchased KINOMEscan (ScanMAX) service
The note with it: JNK1; 1 μM; read-out: % control. The method, then:
as §1, §2

For assay [8], the target named is T8, panel of 468 kinases (Homo sapiens, UniProt P49759).
T8 construct: purchased KINOMEscan (ScanMAX) service
As to conditions: CLK1; 1 μM; read-out: % control. Here is the method: as §1, §2

Assay [9] deals with T9, panel of 468 kinases (Homo sapiens, UniProt P50750).
T9 construct: purchased KINOMEscan (ScanMAX) service
The note with it: CDK9; 1 μM; read-out: % control. The method, then: as §1, §2

Assay [10] concerns the target T10, panel of 468 kinases (Homo sapiens, UniProt Q08345).
T10 construct: purchased KINOMEscan (ScanMAX) service
The note with it: DDR1; 1 μM; read-out: % control. The method, then: as §1, §2

Assay [11] concerns the target T11, panel of 468 kinases (Homo sapiens, UniProt Q13131).
T11 construct: purchased KINOMEscan (ScanMAX) service
As to conditions: AMPK-alpha1; 1 μM; read-out: % control. The method, then:
as §1, §2

Assay [12] deals with T12, panel of 468 kinases (Homo sapiens, UniProt Q13464).
T12 construct: purchased KINOMEscan (ScanMAX) service
The note with it: ROCK1; 1 μM; read-out: % control. The method, then: as §1, §2

Assay [13] concerns the target T13, panel of 468 kinases (Homo sapiens, UniProt Q16513).
T13 construct: purchased KINOMEscan (ScanMAX) service
As to conditions: PKN2; 1 μM; read-out: % control. The method, then:
as §1, §2

The target of assay [14] is T14, panel of 468 kinases (Homo sapiens, UniProt Q16584).
T14 construct: purchased KINOMEscan (ScanMAX) service
As to conditions: MLK3; 1 μM; read-out: % control. Here is the method:
as §1, §2

The target of assay [15] is T15, panel of 468 kinases (Homo sapiens, UniProt Q86YV6).
T15 construct: purchased KINOMEscan (ScanMAX) service
T15 sequence (Q86YV6 1-388): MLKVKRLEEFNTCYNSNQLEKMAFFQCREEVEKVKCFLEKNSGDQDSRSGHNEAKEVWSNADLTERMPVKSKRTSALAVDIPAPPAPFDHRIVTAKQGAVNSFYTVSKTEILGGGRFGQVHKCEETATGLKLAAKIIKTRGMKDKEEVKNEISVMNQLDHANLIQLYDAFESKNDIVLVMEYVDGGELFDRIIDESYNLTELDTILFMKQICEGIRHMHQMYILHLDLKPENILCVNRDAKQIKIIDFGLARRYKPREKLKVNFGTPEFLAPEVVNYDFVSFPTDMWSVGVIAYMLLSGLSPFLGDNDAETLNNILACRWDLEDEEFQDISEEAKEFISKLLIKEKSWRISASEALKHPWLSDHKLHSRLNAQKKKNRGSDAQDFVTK
The note with it: MYLK4; 1 μM; read-out: % control. Here is the method: as §1, §2

For assay [16], the target named is T16, panel of 468 kinases (Homo sapiens, UniProt Q96Q40).
T16 construct: purchased KINOMEscan (ScanMAX) service
As to conditions: PFTAIRE2; 1 μM; read-out: % control. The method, then: as §1, §2

Assay [17] deals with T17, panel of 468 kinases (Homo sapiens, UniProt Q9H1R3).
T17 construct: purchased KINOMEscan (ScanMAX) service
The note with it: MYLK2; 1 μM; read-out: % control. Here is the method:
as §1, §2

Assay [18] concerns the target T18, panel of 468 kinases (Homo sapiens, UniProt Q9P289).
T18 construct: purchased KINOMEscan (ScanMAX) service
The note with it: MST4; 1 μM; read-out: % control. Here is the method:
as §1, §2

Like-named read-outs stand apart in the source and are kept apart here.

T3 sequence (P07949 29-1114 V804L): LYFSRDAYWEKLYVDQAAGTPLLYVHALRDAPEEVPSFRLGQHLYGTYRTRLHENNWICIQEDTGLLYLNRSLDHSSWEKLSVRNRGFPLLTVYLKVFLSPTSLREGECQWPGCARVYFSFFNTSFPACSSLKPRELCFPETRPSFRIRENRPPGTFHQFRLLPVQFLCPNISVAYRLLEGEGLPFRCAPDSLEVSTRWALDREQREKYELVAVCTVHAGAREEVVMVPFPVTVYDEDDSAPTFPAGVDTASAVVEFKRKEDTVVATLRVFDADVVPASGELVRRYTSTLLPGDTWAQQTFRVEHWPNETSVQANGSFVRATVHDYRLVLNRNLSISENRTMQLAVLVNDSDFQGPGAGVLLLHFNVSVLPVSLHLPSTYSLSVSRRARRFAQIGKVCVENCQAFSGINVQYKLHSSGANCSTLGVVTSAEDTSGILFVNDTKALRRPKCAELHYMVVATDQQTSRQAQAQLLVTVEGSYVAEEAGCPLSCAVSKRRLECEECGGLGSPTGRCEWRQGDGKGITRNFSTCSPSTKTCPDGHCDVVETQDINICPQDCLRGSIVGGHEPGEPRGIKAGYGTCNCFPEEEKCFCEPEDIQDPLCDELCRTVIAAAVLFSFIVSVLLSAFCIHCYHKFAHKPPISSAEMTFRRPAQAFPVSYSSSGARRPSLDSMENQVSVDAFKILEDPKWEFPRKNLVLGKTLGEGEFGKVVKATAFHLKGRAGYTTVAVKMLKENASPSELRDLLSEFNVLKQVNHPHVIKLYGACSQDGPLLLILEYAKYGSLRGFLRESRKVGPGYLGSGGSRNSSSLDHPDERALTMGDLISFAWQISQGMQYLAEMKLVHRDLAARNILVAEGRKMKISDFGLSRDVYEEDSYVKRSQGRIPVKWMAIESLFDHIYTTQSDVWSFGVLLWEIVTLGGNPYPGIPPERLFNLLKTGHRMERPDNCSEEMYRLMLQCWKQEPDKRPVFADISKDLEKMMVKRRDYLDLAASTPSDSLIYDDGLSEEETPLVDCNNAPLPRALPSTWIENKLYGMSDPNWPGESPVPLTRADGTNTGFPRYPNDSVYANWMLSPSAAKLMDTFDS
T9 sequence (P50750 whole entry): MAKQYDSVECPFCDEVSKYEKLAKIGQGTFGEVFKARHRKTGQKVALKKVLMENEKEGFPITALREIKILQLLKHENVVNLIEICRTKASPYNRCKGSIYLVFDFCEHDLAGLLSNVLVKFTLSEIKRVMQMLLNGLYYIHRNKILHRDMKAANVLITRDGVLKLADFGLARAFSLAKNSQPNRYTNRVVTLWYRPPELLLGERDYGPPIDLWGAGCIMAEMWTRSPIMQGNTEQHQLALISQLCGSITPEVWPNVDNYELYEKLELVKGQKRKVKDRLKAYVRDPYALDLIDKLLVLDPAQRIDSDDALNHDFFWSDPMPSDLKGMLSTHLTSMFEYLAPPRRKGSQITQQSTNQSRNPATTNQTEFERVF
T13 sequence (Q16513 whole entry): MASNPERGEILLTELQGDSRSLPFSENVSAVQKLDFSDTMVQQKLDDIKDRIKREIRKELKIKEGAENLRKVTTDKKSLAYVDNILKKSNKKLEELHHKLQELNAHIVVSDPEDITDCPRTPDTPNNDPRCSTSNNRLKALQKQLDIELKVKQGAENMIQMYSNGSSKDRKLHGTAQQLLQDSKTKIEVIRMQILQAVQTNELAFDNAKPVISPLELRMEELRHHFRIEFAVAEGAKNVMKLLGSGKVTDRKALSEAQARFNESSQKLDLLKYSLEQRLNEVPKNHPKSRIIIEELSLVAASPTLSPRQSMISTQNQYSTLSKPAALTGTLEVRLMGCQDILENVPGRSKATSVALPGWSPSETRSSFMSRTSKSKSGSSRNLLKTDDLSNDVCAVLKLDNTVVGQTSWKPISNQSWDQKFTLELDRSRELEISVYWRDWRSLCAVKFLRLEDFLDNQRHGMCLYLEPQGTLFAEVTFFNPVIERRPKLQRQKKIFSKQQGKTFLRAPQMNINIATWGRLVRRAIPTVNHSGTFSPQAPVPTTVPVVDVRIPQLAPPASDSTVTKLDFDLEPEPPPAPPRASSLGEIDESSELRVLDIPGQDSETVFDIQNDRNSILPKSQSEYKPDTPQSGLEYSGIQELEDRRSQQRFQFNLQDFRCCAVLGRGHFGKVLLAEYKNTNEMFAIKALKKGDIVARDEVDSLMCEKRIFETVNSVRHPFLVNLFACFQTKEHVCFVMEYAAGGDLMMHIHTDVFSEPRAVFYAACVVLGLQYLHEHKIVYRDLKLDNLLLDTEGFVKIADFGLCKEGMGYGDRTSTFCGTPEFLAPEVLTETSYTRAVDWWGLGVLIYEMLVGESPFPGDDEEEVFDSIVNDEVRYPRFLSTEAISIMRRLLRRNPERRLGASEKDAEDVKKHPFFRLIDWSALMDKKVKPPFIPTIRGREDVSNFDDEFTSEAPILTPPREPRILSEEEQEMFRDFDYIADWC
T8 sequence (P49759 whole entry): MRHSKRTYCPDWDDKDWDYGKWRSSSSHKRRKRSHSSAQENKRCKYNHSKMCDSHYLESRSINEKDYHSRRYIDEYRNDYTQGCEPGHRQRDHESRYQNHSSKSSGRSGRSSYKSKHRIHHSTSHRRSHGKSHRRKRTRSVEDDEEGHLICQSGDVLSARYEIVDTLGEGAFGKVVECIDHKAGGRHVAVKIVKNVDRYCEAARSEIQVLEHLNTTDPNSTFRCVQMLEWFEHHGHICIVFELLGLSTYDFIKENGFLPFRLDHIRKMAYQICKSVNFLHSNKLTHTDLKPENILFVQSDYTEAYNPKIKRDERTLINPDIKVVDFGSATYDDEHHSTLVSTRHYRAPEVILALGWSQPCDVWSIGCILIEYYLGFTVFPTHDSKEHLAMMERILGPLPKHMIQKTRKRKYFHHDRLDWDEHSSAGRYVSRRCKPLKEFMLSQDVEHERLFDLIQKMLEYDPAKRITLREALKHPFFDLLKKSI
T18 sequence (Q9P289 whole entry): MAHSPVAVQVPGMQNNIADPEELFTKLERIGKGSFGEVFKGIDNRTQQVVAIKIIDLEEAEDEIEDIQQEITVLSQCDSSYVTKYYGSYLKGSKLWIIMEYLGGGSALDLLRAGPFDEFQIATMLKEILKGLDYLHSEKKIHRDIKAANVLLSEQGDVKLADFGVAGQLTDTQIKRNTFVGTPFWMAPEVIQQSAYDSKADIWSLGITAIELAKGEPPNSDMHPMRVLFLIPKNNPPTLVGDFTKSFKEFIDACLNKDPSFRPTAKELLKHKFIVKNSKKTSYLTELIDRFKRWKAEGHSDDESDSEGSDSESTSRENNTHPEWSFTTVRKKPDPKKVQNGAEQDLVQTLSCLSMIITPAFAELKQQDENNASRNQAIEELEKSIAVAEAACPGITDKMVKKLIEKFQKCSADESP
T11 sequence (Q13131 whole entry): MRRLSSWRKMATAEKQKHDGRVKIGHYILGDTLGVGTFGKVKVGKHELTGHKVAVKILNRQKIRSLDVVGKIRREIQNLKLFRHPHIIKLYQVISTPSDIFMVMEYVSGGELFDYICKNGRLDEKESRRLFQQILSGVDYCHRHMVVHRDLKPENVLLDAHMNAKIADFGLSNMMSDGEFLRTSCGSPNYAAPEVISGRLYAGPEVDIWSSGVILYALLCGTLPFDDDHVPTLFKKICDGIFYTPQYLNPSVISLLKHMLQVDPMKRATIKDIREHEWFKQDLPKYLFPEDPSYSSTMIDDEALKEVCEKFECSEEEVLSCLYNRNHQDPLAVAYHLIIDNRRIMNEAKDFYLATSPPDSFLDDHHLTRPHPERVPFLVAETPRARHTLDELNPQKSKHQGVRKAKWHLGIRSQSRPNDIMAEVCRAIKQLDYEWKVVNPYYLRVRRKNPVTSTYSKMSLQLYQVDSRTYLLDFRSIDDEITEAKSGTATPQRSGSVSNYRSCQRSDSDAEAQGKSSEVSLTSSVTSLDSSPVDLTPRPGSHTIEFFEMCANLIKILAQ
T6 sequence (P42336 whole entry M1043I): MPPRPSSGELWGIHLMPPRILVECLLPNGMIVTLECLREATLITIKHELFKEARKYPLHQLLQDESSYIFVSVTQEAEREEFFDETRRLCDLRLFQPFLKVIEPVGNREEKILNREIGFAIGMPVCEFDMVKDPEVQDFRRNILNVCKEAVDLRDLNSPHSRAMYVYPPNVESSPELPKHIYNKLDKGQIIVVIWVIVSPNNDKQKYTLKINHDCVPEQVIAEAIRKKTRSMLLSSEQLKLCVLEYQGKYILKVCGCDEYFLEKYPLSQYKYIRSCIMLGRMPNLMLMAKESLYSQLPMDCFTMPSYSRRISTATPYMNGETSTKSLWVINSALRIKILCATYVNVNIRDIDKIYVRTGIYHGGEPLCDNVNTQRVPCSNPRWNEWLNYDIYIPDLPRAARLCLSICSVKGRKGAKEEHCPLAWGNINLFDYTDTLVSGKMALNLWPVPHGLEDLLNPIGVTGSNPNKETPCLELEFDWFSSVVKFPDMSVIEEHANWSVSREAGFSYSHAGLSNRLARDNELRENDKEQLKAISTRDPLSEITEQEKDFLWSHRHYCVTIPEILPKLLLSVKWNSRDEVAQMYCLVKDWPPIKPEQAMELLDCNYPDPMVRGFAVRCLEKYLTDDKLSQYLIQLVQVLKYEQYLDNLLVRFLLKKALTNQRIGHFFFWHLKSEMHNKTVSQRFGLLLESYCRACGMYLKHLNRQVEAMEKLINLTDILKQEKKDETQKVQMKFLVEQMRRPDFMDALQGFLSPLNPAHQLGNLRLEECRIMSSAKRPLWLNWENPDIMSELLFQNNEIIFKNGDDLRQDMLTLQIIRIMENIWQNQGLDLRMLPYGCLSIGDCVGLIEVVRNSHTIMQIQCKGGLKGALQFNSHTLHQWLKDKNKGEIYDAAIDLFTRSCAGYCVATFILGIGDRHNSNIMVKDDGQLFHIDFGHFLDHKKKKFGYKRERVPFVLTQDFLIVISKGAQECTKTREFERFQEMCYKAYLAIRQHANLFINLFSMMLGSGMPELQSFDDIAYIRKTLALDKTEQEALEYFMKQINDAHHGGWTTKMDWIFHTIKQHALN

`CNc1nc(Nc2ccc(C(=O)N3CCC(N4CCOCC4)CC3)c3c2OCO3)nc2[nH]cc(Cl)c12` [Compound 75, (7-((5-chloro-4-(methylamino)-7H-pyrrolo[2,3-d]pyrimidin-2-yl)amino)benzo[d][1,3]dioxol-4-yl)(4-morpholinopiperidin-1-yl)methanone]: the remaining binding at 1 µM at panel of 468 kinases [1] (ABL1(T315I)-nonphosphorylated) is 100%; at panel of 468 kinases [1] (ABL1(T315I)-phosphorylated), 60%; at panel of 468 kinases [2], 94%; on panel of 468 kinases [3], 42%; on panel of 468 kinases [4] it was 100%; on panel of 468 kinases [5] it was 68%. In addition, the remaining binding at 1 µM on panel of 468 kinases [6] came out at 99%; on panel of 468 kinases [7], 0.1%; on panel of 468 kinases [8] it was 3.4%; at panel of 468 kinases [9], 100%; on panel of 468 kinases [10], 100%; on panel of 468 kinases [11], 89%. Moreover, the remaining binding at 1 µM at panel of 468 kinases [12] came out at 35%; on panel of 468 kinases [13] it was 91%; on panel of 468 kinases [14] it was 51%; on panel of 468 kinases [15], 100%; at panel of 468 kinases [16], 100%; on panel of 468 kinases [17] it was 86%. Further, the remaining binding at 1 µM on panel of 468 kinases [18] came to 51%.
With `CNc1nc(Nc2ccc(P3(=O)CCN(C4CCOCC4)CC3)cc2OC)nc2[nH]cc(Cl)c12` [Compound 77, 4-(4-((5-chloro-4-(methylamino)-7H-pyrrolo[2,3-d]pyrimidin-2-yl)amino)-3-methoxyphenyl)-1-(tetrahydro-2H-pyran-4-yl)-1,4-azaphosphinane 4-oxide], the remaining binding at 1 µM on panel of 468 kinases [1] (ABL1(T315I)-nonphosphorylated) is 99%; on panel of 468 kinases [1] (ABL1(T315I)-phosphorylated), 77%; at panel of 468 kinases [2] it was 87%; on panel of 468 kinases [3], 100%; at panel of 468 kinases [4] it was 97%; at panel of 468 kinases [5], 72%. The remaining binding at 1 µM at panel of 468 kinases [6] stood at 96%; on panel of 468 kinases [7], 0.65%; at panel of 468 kinases [8], 7.1%; at panel of 468 kinases [9], 100%; at panel of 468 kinases [10] it was 100%; on panel of 468 kinases [11], 93%. For the same compound, the remaining binding at 1 µM stood at 95% at panel of 468 kinases [12]; 100% at panel of 468 kinases [13]; 80% on panel of 468 kinases [14]; 64% on panel of 468 kinases [15]; 100% at panel of 468 kinases [16]; 100% at panel of 468 kinases [17]. Moreover, the remaining binding at 1 µM at panel of 468 kinases [18] came to 76%.
With `CNc1nc(Nc2ccc(S(=O)(=O)N3CCC(N4CCOCC4)CC3)cc2OC)nc2[nH]cc(Cl)c12` [Compound 12, 5-chloro-N2-(2-methoxy-4-((4-morpholinopiperidin-1-yl)sulfonyl)phenyl)-N4-methyl-7H-pyrrolo[2,3-d]pyrimidine-2,4-diamine], the remaining binding at 1 µM at panel of 468 kinases [1] (ABL1(T315I)-nonphosphorylated) is 94%; at panel of 468 kinases [1] (ABL1(T315I)-phosphorylated), 100%; on panel of 468 kinases [2] it was 75%; at panel of 468 kinases [3] it was 89%; at panel of 468 kinases [4], 93%; at panel of 468 kinases [5] it was 86%. In addition, the remaining binding at 1 µM was determined as 98% on panel of 468 kinases [6]; 11% at panel of 468 kinases [7]; 6.1% on panel of 468 kinases [8]; 100% at panel of 468 kinases [9]; 100% at panel of 468 kinases [10]; 100% on panel of 468 kinases [11]. For the same compound, the remaining binding at 1 µM at panel of 468 kinases [12] was found to be 100%; at panel of 468 kinases [13], 99%; at panel of 468 kinases [14], 93%; on panel of 468 kinases [15] it was 100%; on panel of 468 kinases [16] it was 100%; on panel of 468 kinases [17], 100%. Moreover, the remaining binding at 1 µM at panel of 468 kinases [18] stood at 80%.

Source of the values: US12479847B2 (DANA-FARBER CANCER INSTITUTE, INC., priority 2019, dated 2025).
